Assay results: paper PMC5697638, “Identification of a Potent Phosphoinositide 3‐Kinase Pan Inhibitor Displaying a Strategic Carboxylic Acid Group and Development of Its Prodrugs” (Chemmedchem, 2017)

Legend:
[1] = molecular target: T1, hPI3Kβ (PIK3CB wt/PIK3R1) (Homo sapiens, UniProt P42338); assay: lipid kinase assay (ADP-Glo), PI3Kβ; type: biochemical
T1 construct: purchased ProQinase, Germany 1168‐1165‐1
Experimental: (§1) In vitro selection, lipid kinase assay: To determine the inhibitory activity of the new molecular entities on PI3K enzyme, a lipid kinase assay was performed: recombinant proteins (30 ng), human PI3Kα (PIK3CA/PIK3R1, #1161‐1165‐1 ProQinase–Germany), hPI3Kβ (PIK3CB wt/PIK3R1, #1168‐1165‐1 ProQinase, Germany), hPI3Kγ (PIK3CG, #1163‐0000‐1 ProQinase, Germany), hPI3Kδ (PIK3CD/PIK3R1, #1162–1165‐1 ProQinase, Germany), hPI3K‐C2α (PIK3C2A, #14‐906 Merck Millipore_Merck KGaA, Germany), hPI3K‐C2β (PIK3C2B, #14‐907 Merck Millipore_Merck KGaA, Germany), hPI3K‐c2γ (PIK3C2G, #1207‐0000‐1 ProQinase, Germany), and hVps34 (PIK3C3, #1160‐0000‐1 ProQinase, Germany), were incubated in kinase buffer {12.5 μL; 20 mM Tris‐HCl pH 7.5, 10 mM MgCl2, 10 μM ATP, 0.05 mg mL^−1 BSA, 0.5 mM EDTA, 5 mM HEPES pH 7.5, for PI3Kα,PI3Kβ, PI3Kγ, PI3Kδ, PI3KC‐2α, and PI3KC‐2γ; 15 mM MnCl2, 5 mM EGTA, 100 μM ATP, 50 mM HEPES pH 7.5, 100 mM NaCl, and 0.03 % CHAPS for PI3K‐C2β and VPS34 {BSA=bovine serum albumin; EDTA=ethylenediaminetetraacetic acid; HEPES=4‐(2‐hydroxyethyl)‐1‐piperazineethanesulfonic acid; EGTA=ethylene glycol‐bis(2‐aminoethylether)‐N,N,N′,N′‐tetraacetic acid; CHAPS=3‐[(3‐cholamidopropyl)dimethylammonio]‐1‐propanesulfonate}. In the reaction, the ATP concentration used for different PI3Ks was defined on the basis of the Michaelis–Menten kinetics of each enzyme, provided by the supplier. Reaction was performed in presence of 0.5 mg mL^−1 lipid micelles (1:1 phosphatidylinositol/phosphatidylserine) and in the absence (DMSO alone) or presence of increasing concentrations of each compound (from 0.1 nM to 30 μM). The mixture was kept at room temperature (RT) for 30 min for PI3Kα, PI3Kβ, PI3Kγ, PI3Kδ, PI3KC‐2α, and PI3KC‐2γ and for 1 h for PI3K‐C2β and PI3K‐C3. The amount of ADP produced in the reaction was measured by using the ADP‐Glo Kinase Assay kit from Promega (#V9102) and a luminescence reader (Glomax multi detection system, Promega, model number 9301‐010).
The residual PI3K lipid kinase activity in the presence of each molecule at different concentrations was related to the control, intended as the recombinant protein in the presence of DMSO alone and was expressed as a percentage. To derive the IC50 value, all data (% of lipid kinase activity) were plotted on a dose–response curve (Graph Pad software), and the IC50 was calculated by using nonlinear regression fit (equation [log agonist] versus response).

[2] = molecular target: T2, hPI3K‐c2γ (PIK3C2G) (Homo sapiens, UniProt O75747); assay: lipid kinase assay (ADP-Glo), PI3K-C2γ; type: biochemical; details: Table 2; mean of at least three determinations, 95 % confidence intervals; read-out: IC50 PI3Kc2γ
T2 construct: purchased ProQinase, Germany 1207‐0000‐1
T2 sequence (O75747 1-1486): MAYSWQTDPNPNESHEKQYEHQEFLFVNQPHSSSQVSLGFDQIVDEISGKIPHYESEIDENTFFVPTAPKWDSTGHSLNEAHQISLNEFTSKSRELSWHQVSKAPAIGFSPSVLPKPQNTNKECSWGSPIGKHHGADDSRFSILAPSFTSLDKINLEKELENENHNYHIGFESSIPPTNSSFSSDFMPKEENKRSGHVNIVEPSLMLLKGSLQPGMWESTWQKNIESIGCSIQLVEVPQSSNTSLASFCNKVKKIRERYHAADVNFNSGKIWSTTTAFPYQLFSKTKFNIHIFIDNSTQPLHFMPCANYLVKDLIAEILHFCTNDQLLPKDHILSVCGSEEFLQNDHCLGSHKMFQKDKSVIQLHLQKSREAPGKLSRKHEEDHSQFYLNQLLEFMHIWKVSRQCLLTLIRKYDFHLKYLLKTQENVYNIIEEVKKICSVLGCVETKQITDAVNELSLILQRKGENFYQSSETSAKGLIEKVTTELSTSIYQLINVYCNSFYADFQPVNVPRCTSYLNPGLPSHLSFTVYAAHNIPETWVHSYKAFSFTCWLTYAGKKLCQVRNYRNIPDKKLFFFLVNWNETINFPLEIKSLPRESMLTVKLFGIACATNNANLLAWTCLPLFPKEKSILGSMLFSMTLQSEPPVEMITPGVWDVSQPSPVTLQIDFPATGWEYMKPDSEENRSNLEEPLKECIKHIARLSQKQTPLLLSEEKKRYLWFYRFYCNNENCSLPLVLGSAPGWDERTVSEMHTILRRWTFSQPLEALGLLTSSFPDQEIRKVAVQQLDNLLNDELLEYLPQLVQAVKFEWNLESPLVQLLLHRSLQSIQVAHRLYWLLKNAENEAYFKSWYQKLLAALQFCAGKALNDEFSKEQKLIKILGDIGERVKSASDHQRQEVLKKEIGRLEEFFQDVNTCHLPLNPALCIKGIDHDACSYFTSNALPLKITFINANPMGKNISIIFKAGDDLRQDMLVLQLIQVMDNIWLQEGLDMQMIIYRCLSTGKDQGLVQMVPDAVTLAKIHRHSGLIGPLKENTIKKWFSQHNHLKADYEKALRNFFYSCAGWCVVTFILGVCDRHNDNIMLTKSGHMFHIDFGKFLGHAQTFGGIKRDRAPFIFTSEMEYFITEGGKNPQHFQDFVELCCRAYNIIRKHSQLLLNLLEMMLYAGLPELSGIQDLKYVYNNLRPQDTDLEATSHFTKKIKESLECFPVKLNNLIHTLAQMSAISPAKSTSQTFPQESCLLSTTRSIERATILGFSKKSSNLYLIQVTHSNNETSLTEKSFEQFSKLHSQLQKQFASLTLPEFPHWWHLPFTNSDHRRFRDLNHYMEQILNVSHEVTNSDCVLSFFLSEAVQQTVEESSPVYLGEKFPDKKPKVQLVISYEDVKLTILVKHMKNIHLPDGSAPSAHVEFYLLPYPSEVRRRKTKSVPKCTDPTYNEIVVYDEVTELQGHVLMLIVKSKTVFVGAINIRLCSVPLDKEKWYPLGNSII
Experimental: as §1, with “Reaction was performed in presence of 0.5 mg mL^−1 lipid micelles (1:1 phosphatidylinositol/phosphatidylserine) and in the absence (DMSO alone) or presence of increasing concentrations of each compound (from 0.1 nM to 30 μM). The mixture was kept at room temperature (RT) for 30 min for PI3Kα, PI3Kβ, PI3Kγ, PI3Kδ, PI3KC‐2α, and PI3KC‐2γ and for 1 h for PI3K‐C2β and PI3K‐C3. The amount of ADP produced in the reaction was measured by using the ADP‐Glo Kinase Assay kit from Promega (#V9102) and a luminescence reader (Glomax multi detection system, Promega, model number 9301‐010).” left out

[3] = metabolic stability in rat liver microsomes (RLM); type: in vitro ADME; details: 50 μM substrate, 60 min

T1 sequence (P42338 whole entry): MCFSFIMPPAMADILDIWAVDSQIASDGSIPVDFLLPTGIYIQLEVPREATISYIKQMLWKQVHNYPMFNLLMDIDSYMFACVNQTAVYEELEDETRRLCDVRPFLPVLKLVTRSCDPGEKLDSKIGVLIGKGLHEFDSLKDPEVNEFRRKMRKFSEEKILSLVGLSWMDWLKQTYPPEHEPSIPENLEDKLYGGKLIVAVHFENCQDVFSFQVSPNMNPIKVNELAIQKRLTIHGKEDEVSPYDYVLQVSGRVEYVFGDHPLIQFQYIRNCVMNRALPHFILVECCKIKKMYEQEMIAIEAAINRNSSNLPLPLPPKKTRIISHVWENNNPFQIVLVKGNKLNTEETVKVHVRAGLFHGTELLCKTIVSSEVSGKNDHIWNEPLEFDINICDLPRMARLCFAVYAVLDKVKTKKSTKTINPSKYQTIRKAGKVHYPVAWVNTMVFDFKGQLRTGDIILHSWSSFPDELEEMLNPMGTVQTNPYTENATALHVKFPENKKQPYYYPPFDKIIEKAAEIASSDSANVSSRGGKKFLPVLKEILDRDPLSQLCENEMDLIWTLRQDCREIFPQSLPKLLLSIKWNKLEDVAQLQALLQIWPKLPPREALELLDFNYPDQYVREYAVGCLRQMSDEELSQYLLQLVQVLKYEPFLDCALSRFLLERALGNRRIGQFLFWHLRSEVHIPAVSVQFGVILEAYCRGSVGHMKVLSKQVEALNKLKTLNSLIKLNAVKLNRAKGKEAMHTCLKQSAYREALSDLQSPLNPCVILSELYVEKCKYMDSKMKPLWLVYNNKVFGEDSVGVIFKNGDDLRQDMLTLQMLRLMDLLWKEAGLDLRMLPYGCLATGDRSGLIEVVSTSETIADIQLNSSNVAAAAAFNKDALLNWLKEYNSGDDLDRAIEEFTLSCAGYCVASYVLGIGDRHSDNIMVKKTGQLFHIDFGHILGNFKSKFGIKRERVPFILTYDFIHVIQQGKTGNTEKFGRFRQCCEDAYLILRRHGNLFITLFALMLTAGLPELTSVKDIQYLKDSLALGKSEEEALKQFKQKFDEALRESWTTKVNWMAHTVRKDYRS
T1 sequence (P27986 whole entry partner): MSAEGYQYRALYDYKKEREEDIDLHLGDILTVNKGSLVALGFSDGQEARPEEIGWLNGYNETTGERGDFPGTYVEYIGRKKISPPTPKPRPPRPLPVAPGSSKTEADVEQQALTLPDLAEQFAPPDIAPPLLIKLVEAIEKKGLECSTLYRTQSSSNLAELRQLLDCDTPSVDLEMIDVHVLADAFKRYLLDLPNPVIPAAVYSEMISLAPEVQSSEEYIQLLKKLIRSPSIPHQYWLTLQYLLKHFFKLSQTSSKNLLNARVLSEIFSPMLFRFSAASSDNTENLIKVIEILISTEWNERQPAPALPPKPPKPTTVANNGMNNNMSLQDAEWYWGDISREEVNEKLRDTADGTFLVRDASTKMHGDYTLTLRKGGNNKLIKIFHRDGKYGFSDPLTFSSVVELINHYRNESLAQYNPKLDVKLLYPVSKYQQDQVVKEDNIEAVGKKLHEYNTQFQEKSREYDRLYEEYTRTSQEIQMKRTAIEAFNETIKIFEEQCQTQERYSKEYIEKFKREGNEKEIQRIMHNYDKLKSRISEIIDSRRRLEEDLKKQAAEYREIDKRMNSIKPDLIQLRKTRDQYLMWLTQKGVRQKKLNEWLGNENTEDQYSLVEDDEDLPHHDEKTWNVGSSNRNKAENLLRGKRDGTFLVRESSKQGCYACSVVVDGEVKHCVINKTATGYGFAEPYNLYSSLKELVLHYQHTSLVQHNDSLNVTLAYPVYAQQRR

% residual substrate, RLM (without NADPH) [3] [%]	SMILES	IC50 ([1]; Table 2, mean of at least three determinations, 95 % confidence intervals) [nM]	inhibition at 1 µM ([1]; determined at 1 μM, at least triplicate, read-out: Inhibitory activity, PI3K isoform β) [%]	IC50 [2] [nM]
–	O=C(O)c1cccc(Cn2cc(-c3cccc4c(=O)cc(N5CCOCC5)[nH]c34)nn2)c1 [Compound 37, 3‐{[4‐(2‐Morpholino‐4‐oxo‐1,4‐dihydroquinolin‐8‐yl)‐1H‐1,2,3‐triazol‐1‐yl]methyl}benzoic acid]	59 ± 15	> 50	2800 ± 700
32	COC(=O)c1cccc(Cn2cc(-c3cccc4c(=O)cc(N5CCOCC5)[nH]c34)nn2)c1 [Compound 64, Methyl 3‐{[4‐(2‐morpholino‐4‐oxo‐1,4‐dihydroquinolin‐8‐yl)‐1H‐1,2,3‐triazol‐1‐yl]methyl}benzoate]	–	–	–
